Earlier results on 2 compounds are cited in US20140142181A1, “TREATING AND INHIBITING RECURRENCE OF MUSCLE CRAMPS” (priority 2012, published 2014).

The conditions of series [1]: received by USFDA; quinine use.
A further series has as its system cramping. Conditions: 39 Division I baseball players; creatine supplementation during training and competition.

Take `C=C[C@H]1C[N@@]2CC[C@H]1C[C@H]2[C@H](O)c1ccnc2ccc(OC)cc12` [quinine, Quinine]: in series [1], the “Deaths among reported adverse events” value is on record as 93 and the “Reports of adverse events with serious outcomes” value is reported as 665.

`CN(CC(=O)O)C(=N)N` [creatine]: in the series with cramping, the “Cramping, creatine group versus non-creatine group” value is on record as “no significant difference”.
